Laboratory results reported in patent US11072601B2, “μ-opioid receptor agonist and preparation method therefor and use thereof in field of medicine” (SHANGHAI SYNERGY PHARMACEUTICAL SCIENCES CO., LTD., priority 2017, dated 2021).

Tests used:
[1] = Pharmacokinetic test in rats, intravenous; type: in vivo; settings: male, SD, rat, plasma, intravenous 1 mg/kg; for AUC: read-out: curve area (AUC); for half-life: read-out: half life (T½) (converted); for Cmax: read-out: plasma concentration (Cmax)
Source text: 8-week-old male SD rats weighing 200-300 g were used as experimental animals, and LC/MS/MS method was used to determine the drug concentration in plasma at different times after the administration of the compound of Example H01, the compound of Example H04, the compound of Example H05, the compound of Example H07, the compound of Example H16, the compound of Example H17, the compound of Example H18, the compound of Example H21, and the compound of Example H24. The pharmacokinetic behavior of the compounds of the present invention in rats was studied, and its pharmacokinetic characteristics were evaluated.
A certain amount of the compounds were weighed, and dissolved in ethanol/castor oil/water=10/10/80 to form a uniform solution.
The above compounds were administered intravenously to rats at a dose of 1 mg/kg, and 0.2 ml of blood was collected from the orbit at 0.083, 0.25, 0.5, 1.0, 2.0, 4.0, 6.0, 8.0, 12.0, 24.0 hours before and after administration, and placed in an anticoagulant tube, the plasma was separated by centrifugation at 6,000 rpm for 10 minutes at 4° C., and stored at −80° C.
50 μL of plasma was taken at different times, 150 μL of acetonitrile solution containing internal standard tolbutamide (200 ng/mL) was added, the system was mixed and shaked for 5 minutes, 12000 rpm, centrifuged for 5 minutes, 100 μL of supernatant was removed, and then mixed with 200 μL of water, then the sample was loaded for analysis. The internal standard tolbutamide solid (Aladdin, T129578) powder was dissolved in DMSO to prepare into a 1 mg/mL stock solution. The stock solution was diluted with 100% acetonitrile to obtain a solution of 200 ng/mL as a protein precipitator.
The liquid chromatography system was an LC-20AD UFLC high performance liquid chromatography system (Shimadzu, LC-20AD). The mass spectrometry system was an AB Sciex API4000 triple quadrupole mass spectrometer equipped with an electrospray ionization source (ESI) (Applied Biosystems, Canada). The software used to control the liquid-mass coanalyzer and quantitative analysis was Analyst 1.6 (Applied Biosystems, Canada), and the pharmacokinetic parameters were analyzed using WinNonlin (version 5.2, Pharsight, Mountain View, Calif.) non-compartment model.
Liquid chromatographic separation was performed using AQ-C18 column (50×2.1 mm, internal diameter of […]). The column temperature was maintained at room temperature.
The compound to be tested was dissolved in DMSO to prepare a stock solution with a concentration of 1 mg/mL, and diluted with 70% acetonitrile to obtain a series of standard working solutions with concentrations of 30, 10, 3, 1, 0.3, 0.1, 0.03, and 0.01. μg/mL, and a series of standard quality control solutions (24, 8 and 0.03 μg/mL). 5 μL of standard solution and 45 μL of blank plasma matrix were mixed uniformity to obtain standard solutions (3000, 1000, 300, 100, 30, 10, 3, and 1 ng/mL) and quality control standards (plasma samples: 2400, 800, 80, and 3 ng/mL) at each concentration point of the standard curve.

μ opioid receptor (MOR) = target: T1, μ opioid receptor (MOR) (Homo sapiens, UniProt P35372); assay: cell-based; settings: HEK293 stably expressing μ opioid receptor, FLIPR calcium
T1 construct: host or cells: HEK293
T1 sequence (P35372 whole entry, species assumed): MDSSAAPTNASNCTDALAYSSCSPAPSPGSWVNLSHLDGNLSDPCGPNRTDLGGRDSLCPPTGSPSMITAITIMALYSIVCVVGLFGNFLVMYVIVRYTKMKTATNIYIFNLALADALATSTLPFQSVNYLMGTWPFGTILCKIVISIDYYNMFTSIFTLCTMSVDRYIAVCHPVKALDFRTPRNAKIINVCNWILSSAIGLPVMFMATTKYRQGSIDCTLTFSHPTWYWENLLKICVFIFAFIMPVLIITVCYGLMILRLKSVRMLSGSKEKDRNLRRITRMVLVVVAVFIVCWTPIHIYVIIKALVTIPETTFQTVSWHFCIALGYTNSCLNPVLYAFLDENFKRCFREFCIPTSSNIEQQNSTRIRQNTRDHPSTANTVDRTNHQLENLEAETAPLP
Experimental: The purpose of the experiment was to test the agonistic effects of the compounds of the present invention on μ opioid receptor (MOR), κ opioid receptor (KOR) and δ opioid receptor (DOR), and to evaluate in vitro activity of the compounds according to the half-maximal effect concentration (EC50).
This test was performed using HEK293 cell lines (the stably expressed cell lines were provided by WuXi AppTec) which stably expressed μ opioid receptor, δ opioid receptor or κ opioid receptor respectively. […] The cells were centrifuged at 1000 rpm for 5 minutes at room temperature to precipitate. The supernatant was sucked out, be careful not to suck out cells. The precipitate was flicked into the loose cells and resuspend in 45 ml DMEM medium. The Vi-CELL XR automatic cell viability detector (BECKMAN COULTER) was used to count the cells, and the cell concentration was adjusted to 10×10^5 cells/ml based on the counting results.
Preparation of probenecid mother solution: 1 ml of FLIPR test solution was added to 77 mg probenecid to prepare a 250 mM solution. The solution was freshly prepared just before use.
The solution was freshly prepared just before use.
The cell plate prepared above was removed from the incubator and 20 ul 2× Fluo-4 Direct™ buffer was added thereto. The final volume in the cell plate was […]. The plate was incubated at 37° C., under 5% CO2 for 50 minutes, and incubated at room temperature for 10 minutes, then was placed into the FLIPR instrument (MD), and the compound plate and pipette box was placed into. The protocol was run on the […] platform, 10 μl of positive drug or the test compound was transfered to the cell plate from the compound plate, and the fluorescent signal was read.
The signal value generated by each well was calculated, and the calculation formula was that: the activity %=(signal value of the test compound−signal value of the solvent)/(signal value of the positive drug−signal value of the solvent).

[2] = target: T2, cAMP pathway of MOR receptor (Homo sapiens, UniProt P35372); assay: cell-based; settings: cAMP Hunter HEK293 cells, forskolin-induced cAMP; read-out: EC50 of cAMP levels affected by agonistic effect on MOR
T2 construct: host or cells: HEK293 (cAMP Hunter cell line)
T2 sequence (P35372 whole entry): as the sequence (P35372 whole entry, species assumed) above
Source text: The purpose of this experiment was to test the agonistic effect of the compounds of the invention on the cAMP pathway of MOR and to evaluate the in vitro activity of the compounds according to EC50.
In this experiment, HitHunter cAMP Assay EFC technology of DiscoverX was used to measure the cAMP level in cells and monitor the functional status of G-protein coupled receptors (GPCRs).
The amount of signal produced was directly proportional to the amount of cAMP in the cell.
The MOR receptor was bound to the inhibitory Gαi protein, so forskolin (for inducing cAMP signal) was used to induce cAMP expression in the experiment, and the inhibitory effect of the compounds on the above induction was measured.
The cAMP Hunter cell line (HEK293, DiscoverX) was removed from the freezer and expanded according to the Cell Standard Operating Procedure (SOP), 20 μL was collected and inoculated into a 384-well microplate and incubated at 37° C. overnight.
The HitHunter cAMP Assay test kit (DiscoverX, 90-0075sm) was used, the kit contained cAMP buffer, cAMP detection solution, and cAMP working solution A.
The formula was used to calculate the percentage of signal activity per well=100%×(1−(average RLU of the test samples−average RLU of the MAX controls)/(average RLU of the solvent controls−average RLU of the MAX controls)). wherein, the MAX control referred to the fluorescence signal value of the endorphin solution, and the solvent control referred to the fluorescence signal value of DMSO. The DiscoveRx CBIS data analysis workstation (ChemInnovation, CA) was used to perform statistical analysis of the percentage of signal activity and the concentration of the compounds by the agonist formula (comes with the software, universal) to calculate the EC50 value.

[3] = target: T3, β-arrestin signaling pathway of MOR (Homo sapiens, UniProt P35372); assay: cell-based; settings: PathHunter HEK293 cells, relative to endorphin MAX control
T3 construct: host or cells: HEK293 (PathHunter cell line)
T3 sequence (P35372 whole entry): as the sequence (P35372 whole entry, species assumed) above

SD rats = assay: Respiratory depression in rats, arterial blood gas PCO2; type: in vivo; settings: for PCO2, 5 min before administration: arterial blood; for PCO2, 5 min after administration / PCO2, 30 min after administration / PCO2, 60 min after administration / PCO2, 120 min after administration: intravenous single dose 0.3 mg/kg (morphine 24 mg/kg)
Source text: (§1) 8-week-old male SD rats weighing 200 g-300 g were used as experimental animals to determine the effect of the compound of Example H05, the compound of Example H08, the compound of Example H10, the compound of Example H16, the compound of Example H17, the compound of Example H18, the compound of Example H21, and the compound of Example H24 on the partial pressure of blood in rats after intravenous administration. The effects of the compounds of the invention on respiratory depression were investigated.
After the rats were acclimatized to the experimental environment for 3 days, each animal was anesthetized with sodium pentobarbital (50-60 mg/kg, ip), and then the right common carotid artery was isolated and the unilateral carotid artery tube-bury surgery was performed (PE60, ID*OD*length as 0.76 mm*1.22 mm*20 cm, buried into the artery 1 cm deep, and the tube was filled with heparin sodium tube sealing solution).

[4] = system: rat surgical incision injury model; assay: Rat surgical incision injury model, von Frey paw withdrawal threshold; type: in vivo, SD rats; settings: rats, intravenous 0.3 mg/kg
Source text: as §1, with “H02,” for “H05,”, “H04,” for “H08,”, “H21” for “H21,”, “surgical pain” for “the partial pressure of blood”, “analgesic effect” for “effects”, “was discussed.” for “of the invention on respiratory depression were investigated.”
A certain amount of the compounds or TRV130 (MCE, 15150) was weighed, and dissolved in ethanol/castor oil/water=10/10/80 as a clear and transparent solution.
Three days after the rats were acclimatized to the experimental environment, the preoperative base value was determined, and followed by the surgical pain operation described below, about 24 hours after the surgery, the basic value was measured before administration on all animals, and mechanically hypersensitive animals (the paw withdrawal threshold (PWT) was less than 5 g) was randomly assigned to each administration group according to PWT. The pain threshold was determined 30 minutes and 60 minutes after intravenous administration of the positive drug TRV130 or each compound of the present invention (at a dose of 0.3 mg/kg).
The surgical procedure was performed aseptically, and the surgical instruments (scissors, tweezers, scalpels, surgical cotton and sutures) were sterilized before surgery. The animals were anesthetized with sodium pentobarbital (50 mg/kg, injected intraperitoneally), and the toes of the animals were squeezed to confirm that the animals were completely anesthetized before surgery. From the position of 0.5 cm away from the heel, an incision about 1 cm was made in the longitudinal direction of the toe. After cutting the skin, the musculus flexor digitorum brevis was raised and a blunt injury was caused longitudinally. After pressing to stop bleeding, the wound was sutured. When the animal was completely awake (free to move), the animal was put back into the cage (the reference of the construction of surgical pain model: Timothy J. Brennan, Erik P. Vandermeulen, G. F. Gebhart. Characterization of a rat model of incisional pain. Pain, 64(1996):493-501).
An up-down method was used for the determination of pain sensitivity. The mechanical pain results were expressed as animal paw withdrawal response threshold (PWT). The rat was placed separately in a plexiglass box with a mesh at the bottom of the box to ensure that the rat's feet could be tested. The rat was acclimatized for 15 minutes before the test, and after the acclimatization, the test fiber (von frey fiber, West coast) was used to test in the middle part of the hind foot of the rat. The test fibers included 8 test strengths: 3.61 (0.4 g), 3.84 (0.6 g), 4.08 (1 g), 4.31 (2 g), 4.56 (4 g), 4.74 (6 g), 4.93 (8 g), and 5.18 (15 g). During the test, the test fiber was pressed vertically against the skin and a force was applied to bend the fiber for 6-8 seconds, at an interval of 5 seconds between each test. During the test, the animal's rapid withdrawal was recorded as a pain response. When the test fiber left the animal's skin, the animal's withdrawal was also recorded as a pain response. Starting from 2 g, depending on whether the rats had any pain response, the test was changed into the next test intensity or the previous test intensity. A series of responses of the rats to different test intensities were recorded. […] Wherein, Xf was the logarithmic value of von Frey fiber used in the last test, and K value was the animal withdrawal reaction mode (recorded during the test), which was the value obtained after looking up the table according to the obtained sequence of “X” and “O”, δ=Mean of logarithmic difference between von Frey fibers used in the test.

## FC(F)(F)Oc1cccc(CNCCC2(c3ccccn3)CCOC3(CCCC3)C2)c1 (stereo not drawn) [Example H01, (3-trifluoromethoxybenzyl)-[2-(9-(pyridin-2-yl)-6-oxaspiro[4.5]decan-9-yl)ethyl]amine]
[1]
  AUC: 295 ± 1 ng·h/mL
  half-life: 66.6 ± 14.4 min
  Cmax: 202 ± 33.5 ng/mL
μ opioid receptor (MOR)
  EC50: 6.71 nM
[2]
  EC50: 4.93 nM
[3]
  Emax: 6.26%

## Clc1ccsc1CNCCC1(c2ccccn2)CCOC2(CCCC2)C1 (stereo not drawn) [Example H05, ((3-chloro-thiophen-2-yl)methyl)-[2-(9-(pyridin-2-yl)-6-oxaspiro[4.5]decan-9-yl)ethyl]amine]
[1]
  AUC: 336 ± 14.1 ng·h/mL
  half-life: 236 ± 7.8 min
  Cmax: 261 ± 21 ng/mL
SD rats
  PCO2, 5 min before administration: 35.65 ± 0.44 mmHg
  PCO2, 5 min after administration: 36.15 ± 1.93 mmHg
  PCO2, 30 min after administration: 33.65 ± 0.49 mmHg
  PCO2, 60 min after administration: 34.85 ± 0.43 mmHg
  PCO2, 120 min after administration: 35.7 ± 0.95 mmHg
μ opioid receptor (MOR)
  EC50: 7.05 nM
[2]
  EC50: 10.2 nM
[3]
  Emax: 0%

## Cc1ccc(CNCCC2(c3ccccn3)CCOC3(CCCC3)C2)cc1C (stereo not drawn) [Example H07, (3,4-dimethylbenzyl)-[2-(9-(pyridin-2-yl)-6-oxaspiro[4.5]decan-9-yl)ethyl]amine]
[1]
  AUC: 583 ± 31.8 ng·h/mL
  half-life: 75 ± 3 min
  Cmax: 483 ± 33.3 ng/mL
μ opioid receptor (MOR)
  EC50: 3.15 nM
[2]
  EC50: 3.08 nM
[3]
  Emax: 1.55%

## Cc1ccc(CNCCC2(c3ccccn3)CCOC3(CCCC3)C2)c(C)c1 (stereo not drawn) [Example H08, (2,4-dimethylbenzyl)-[2-(9-(pyridin-2-yl)-6-oxaspiro[4.5]decan-9-yl)ethyl]amine]
SD rats
  PCO2, 5 min before administration: 33.77 ± 0.88 mmHg
  PCO2, 5 min after administration: 35.48 ± 1.54 mmHg
  PCO2, 30 min after administration: 34.03 ± 0.69 mmHg
  PCO2, 60 min after administration: 34.27 ± 1.4 mmHg
  PCO2, 120 min after administration: 34.83 ± 1.15 mmHg
μ opioid receptor (MOR)
  EC50: 3.42 nM
[2]
  EC50: 4.77 nM
[3]
  Emax: 3.8%

## COc1ccsc1CNCC[C@@]1(c2ccccn2)CCOC2(CCCC2)C1 [TRV130, reference compound]
[4]; 30 min
  50% PWT, 30 min after administration: 6.05 ± 0.44 g
[4]; 60 min
  50% PWT, 60 min after administration: 5.71 ± 0.33 g
